From patent US20090221540A1, “Method of Treating An Acute Vascular Disorder” (PANTARHEI BIOSCIENCE B.V., priority 2006, published 2009)
Where two headings read alike, the source gives them in different places. Values belong to the molecule of their own block, whether it stands above or below them.

Assays:
[1] = system: coronary and cerebral arteries; settings: in vitro; cited from earlier work
[2] = single oral dose pharmacokinetics study of estetrol in healthy postmenopausal volunteers; assay type: in vivo, human; settings: for Cmax: po
Experimental: (§1) A double-blind, randomized, placebo-controlled, single dose study was performed to determine the safety, tolerability and pharmacokinetics of 1, 10 and 100 mg orally administered estetrol in healthy postmenopausal volunteers (menopause defined as ≧12 months amenorrhea or six months amenorrhea with serum FSH levels ≧40 IU/L and serum E2<73 pmol/L), a Body Mass Index of 18-30 kg/m^2, non-smoking, good physical and mental health as judged by the investigator determined by medical history, physical examination, clinical laboratory, vital signs and ECG recording). In each dose group, six subjects received estetrol treatment and two subjects received placebo.
Estetrol and placebo medication was formulated as a solution (propylene glycol/water mixture) and was delivered in separate bottles for each volunteer. Bottles contained 1 mg or 10 mg estetrol per 50 ml for subjects of the groups that received 1 mg or 10 mg estetrol and 100 mg per 200 ml for the group receiving 100 mg estetrol.
(§2) Screening took place within two weeks before investigational drug administration. During and after drug administration, subjects were admitted to a Clinical Pharmacology Unit for approximately 60 hours for intensive safety monitoring. Safety and tolerability were documented by monitoring (serious) adverse events, physical examinations including vital signs, and safety laboratory assessments (hematology, biochemistry, urinalysis). Frequent blood sampling (within the range of 15 minutes to 168 hours) was performed to assess estetrol plasma concentration and pharmacokinetic variables. For this, plasma samples were subjected to liquid-liquid extraction (hexane and diethyl ether) and further subjected to HPLC analysis (Perkin Elmer 200) and tandem mass spectrometry using a PE Sciex 4000 tandem mass spectrometer and APCI interface. With each sample batch, a calibration curve with 6 calibrators was recorded. The calibration curve was calculated using linear regression (correlation coefficient >0.98), which permitted quantification of estetrol plasma concentrations.

[3] = safety and tolerability of single oral doses of estetrol in healthy postmenopausal volunteers; assay type: in vivo, human
Experimental: as §1, §2

[4] = system: angina pectoris induced by coronary artery disease; assay: clinical trial of on demand oral estetrol versus placebo in angina pectoris; assay type: in vivo, human; settings: 100 mg per dose
Experimental: A clinical trial is conducted with single dose, on demand oral estetrol administration of 100 mg in subjects suffering from documented angina pectoris and is compared to placebo treatment. Additionally, patients in this trial are offered to use their standard on demand medication, e.g. nitroglycerin. Hundred patients, males and females, with a diagnosis of angina pectoris induced by coronary artery disease, substantiated by positive dynamic tests of myocardial ischaemia, participate in the clinical trial. Patients are selected according to the following inclusion (I) and exclusion (E) criteria: Patients with clear angina pectoris diagnosis (I), patients having chest pain attacks more than two times a week (I). Patients with active myocardial infarct or other cardiopulmonary heart disease, such as severe psychoneurosis, menopausal syndrome and chest pain caused by cervical spondylopathy (E), patients of angina pectoris combined with hypertension (bloodpressure >24/14.87 Kpa) (E), patients of severe cardiopulmonary function deficiency, severe arrhythmia, abnormal liver and renal function and/or hematopoietic disease (E), breast-feeding women and patients with a known history of allergic disease (E), patients younger than 18 or older than 70 (E).
The diagnostic standard for angina pectoris severity is used to describe baseline patient characteristics and subsequently to monitor treatment efficacy (see below).
Low-grade: Typical attack of angina pectoris, which usually lasts a few minutes and occurs 1-3 times a day. The attack is not severe, but the patient sometimes needs to take nitroglycerin. Mid-grade: Angina attack occurs more than 3 times everyday and lasts several to ten minutes every time. The pain is more severe than that of the low-grade attack and the patient generally needs sublingual nitroglycerin. High-grade: Angina attack occurs frequently daily. It lasts longer and more seriously. Routine life is affected. The patient needs to use nitroglycerin frequently.
The diagnostic standard for angina pectoris types is used to describe baseline characteristics and classify patient types.
Exertionally-induced angina pectoris: The transient attack of chest pain is caused typically by exertion or other conditions that increase myocardial oxygen demands. The pain normally disappears rapidly after rest or administration of sublingual nitroglycerin. Spontaneous angina pectoris: The attack of chest pain is not obviously related to increase of myocardial oxygen consumption. Compared with tiredness-induced angina pectoris, the pain lasts longer and is more severe. It can not be easily alleviated by nitroglycerin. Mixed Angina Pectoris: Spontaneous angina pectoris can come with tiredness-induced angina pectoris and is classified as mixed angina pectoris. […]

migraine = assay: double-blind, placebo-controlled, multiple attack clinical study of on demand oral estetrol in migraine; assay type: in vivo, human
Experimental: A double-blind, placebo-controlled, multiple attack clinical study is conducted with single dose, on demand oral estetrol administration in adult volunteers (20 females and 20 males) each of whom is seeking migraine relief. Participating subjects show at least a 1-year history of migraine as is defined by International Headache Society criteria (IHS; Headache Classification Committee of the International Headache Society, 1988, Cephalalgia 8 (Suppl. 7):19-28) and report regularly occurring migraines with episodes of pain, photophobia and nausea. Each participant receives blinded medication in two differently labeled bottles, filled with tablets. One bottle comprises tablets that contain 100 mg estetrol, whilst the other bottle contains identical placebo tablets. Participants are allowed to choose from which bottle to orally ingest a tablet at the moment the first symptoms of a migraine attack become apparent. Patients are asked to keep daily records stating the number of migraine attacks, severity of attacks, duration of attacks and use of medication (bottle 1 or bottle 2) for the entire study period of 2 months.

[5] = system: erectile dysfunction primarily due to vascular causes; assay: clinical trial of on demand oral estetrol versus placebo in erectile dysfunction (SFQ); assay type: in vivo, human; settings: 100 mg per dose
Experimental: As a novel method single dose, on demand oral estetrol administration is tested to treat erectile dysfunction and compared to placebo treatment. A clinical trial is performed in 20 subjects, experiencing erectile dysfunction that is primarily due to vascular causes and in whom intracavernous injection of either papaverine or phentolamine has been previously proven successful in restoring erectile function. Ten subjects receive estetrol medication (100 mg per dose) and 10 subjects receive placebo medication in this outclinic study. Subjects with mild, moderate as well as severe symptoms of erectile dysfunction are instructed on the use of investigational drug medication, which is preferentially being taken 15 minutes to 2 hours before sexual activity. At the start of the trial, subjects are asked to fill out a baseline Sexual Functioning Questionnaire (SFQ). The SFQ is used as the primary endpoint, since this is a self-administered questionnaire and designed to measure changes in sexual function (Smith et al., 2002, British J. Psych., 181:49-55). It asks detailed questions about libido, physical arousal (erection), masturbation, orgasm and ejaculation. It is designed such that higher scores indicate greater dysfunction. Typically total normal controls scores are less than 14 and sexually disfunctioning patients show total scores of more than 18 (Smith et al., 2002, British J. Psych., 181:49-55). […] At the end of the study period at 4 weeks, subject's responses to SFQ survey questions are compared to SFQ responses at baseline. For separate SFQ variables, a comparison is made of those subjects who initially show a bad baseline score. The results are then pooled and expressed as the percentage of subjects with improvement.

Structure (SMILES): C[C@]12CC[C@@H]3c4ccc(O)cc4CC[C@H]3[C@@H]1CC[C@@H]2O [17β-estradiol]
effect on coronary and cerebral arteries [1]: relaxant effect

time of maximum plasma concentrations post-dosing ([2]; 1 mg oral dose group): 15 min
Cmax ([2]; female, human, plasma, 1 mg, 1 mg oral estetrol, read-out: Cmax (median)): 0.52 ng/mL
Cmax ([2]; female, human, plasma, 1 mg, 1 mg oral estetrol, read-out: Cmax (range)): 0.39 to 1.2 ng/mL
Cmax ([2]; female, human, plasma, 10 mg, 10 mg oral estetrol, read-out: Cmax (median)): 9.4 ng/mL
Cmax ([2]; female, human, plasma, 10 mg, 10 mg oral estetrol, read-out: Cmax (range)): 5.4 to 11.6 ng/mL
Cmax ([2]; female, human, plasma, 100 mg, 100 mg oral estetrol, read-out: Cmax (median)): 148 ng/mL
Cmax ([2]; female, human, plasma, 100 mg, 100 mg oral estetrol, read-out: Cmax (range)): 119 to 213 ng/mL
half-life ([2]; female, human, plasma, single oral dose, final elimination phase, read-out: terminal half-life (converted)): ~28 h
gastro-intestinal absorption ([2]; oral dosing 1, 10 and 100 mg): good gastro-intestinal absorption
inter-subject variability of pharmacokinetic profile ([2]; oral dosing 1, 10 and 100 mg): low inter-subject variability
speed of absorption ([2]; single oral dose): extremely fast
start of slow phase of final elimination post-dosing ([2]; single oral dose): approximately 24 hours
Structure (SMILES): C[C@]12CC[C@@H]3c4ccc(O)cc4CC[C@H]3[C@@H]1[C@@H](O)[C@@H](O)[C@@H]2O [estetrol, 1,3,5 (10)-estratrien-3,15α,16α,17β-tetrol]
changes in vital signs, haematology, biochemistry or urinalysis ([3]; 1, 10 and 100 mg estetrol): no clinically significant changes
severe or serious adverse events ([3]; 1, 10 and 100 mg estetrol): No severe or serious adverse events
safety and tolerability profile ([3]; single oral doses of 1, 10 and 100 mg): safe and well tolerated
patient-reported effect on angina pectoris symptoms ([4]; on demand oral): relief of angina pectoris symptoms
side effects versus placebo ([4]; on demand oral, 4 weeks): no obvious side effects
use of nitroglycerin versus placebo arm ([4]; on demand oral, 4 weeks): significantly lower than in the placebo arm
improvement of exercise tolerance, ability to extend the duration of walking and quality of life ([4]; versus placebo): statistically more improvement
headache and relief of migraine symptoms versus baseline analgesic and/or triptan-type medication (migraine; 100 mg estetrol tablets): less headache and more quicker relief of migraine symptoms
side effects directly related to investigational drug (migraine; 100 mg estetrol tablets, on demand, 2 months): No apparent side effects
tablet use by participants, estetrol versus placebo (migraine; free choice between blinded bottles, 2 months): significantly more estetrol containing tablets than placebo tablets
improvement in satisfaction with overall sex life versus placebo ([5]; SFQ at 4 weeks): more subjects report improvement
percentage of subjects with improvement in the ability to develop and maintain erections versus placebo ([5]; SFQ at 4 weeks versus baseline): higher percentage of subjects that show improvement
tolerability ([5]; on demand oral, 4 weeks): well tolerated
